For one molecule, Kd results are on record in PMC3904663 (Nature, 2013).

A word on the Kd: it is the free concentration of one partner at which half of the binding sites on the other are occupied at equilibrium, for simple one-to-one binding. A lower Kd goes with higher affinity.

The test deals with Drosophila melanogaster dopamine transporter (dDATcryst) (Drosophila melanogaster, UniProt Q7K4Y6, V74A/DEL164-206/V275A/V311A/L415A/G538L). The class given is binding.

As to `CNCCC(Oc1ccccc1OC)c1ccccc1` (stereo not shown) [nisoxetine], binding was put at a Kd of 29 nM.
